The EC50 is the concentration at which the effect is half-maximal. One may read the AC50 as the concentration at which the activity in the assay is half-maximal. As usually defined, the CC50 is the concentration at which the toxic effect on the cells reaches its halfway point.

The source of these data is ChEMBL document CHEMBL1201862, “PubChem BioAssay data set” (2004).

Active and inactive are the calls of the source. Some results are limits rather than exact numbers.

One data set deals with T1, Heat shock factor protein 1 (Mus musculus, UniProt P38532).
T1 sequence (P38532 whole entry): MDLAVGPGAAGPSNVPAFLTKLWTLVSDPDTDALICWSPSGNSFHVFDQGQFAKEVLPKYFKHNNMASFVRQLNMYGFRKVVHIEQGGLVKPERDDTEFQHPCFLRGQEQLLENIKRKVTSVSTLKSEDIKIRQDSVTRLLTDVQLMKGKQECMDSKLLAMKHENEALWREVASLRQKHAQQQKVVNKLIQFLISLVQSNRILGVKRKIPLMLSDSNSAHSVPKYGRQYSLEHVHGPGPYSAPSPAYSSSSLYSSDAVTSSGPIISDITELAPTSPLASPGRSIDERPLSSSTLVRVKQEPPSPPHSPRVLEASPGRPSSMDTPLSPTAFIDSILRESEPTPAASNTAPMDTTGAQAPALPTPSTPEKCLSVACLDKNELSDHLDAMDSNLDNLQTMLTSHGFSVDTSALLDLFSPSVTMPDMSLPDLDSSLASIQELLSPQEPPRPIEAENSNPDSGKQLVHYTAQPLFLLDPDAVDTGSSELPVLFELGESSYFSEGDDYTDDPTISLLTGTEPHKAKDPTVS
As to the kind of experiment: HSF1 potentiators in luciferase reporter cells, confirmation, cell-based, NIH3T3, luminescence, dose retest (AID 435004).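 Also: stress induced by proteasome inhibitor MG132 added 30 min after compound; luciferase reporter driven by HSF1 response element in NIH3T3 cells; actives raise luminescence as potentiators of the MG132 stress response.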
Settings: not given
In kind it is functional. In general terms: A reporter such as luciferase makes a cellular process visible.
Turning to `CC[C@H](C)/C=C(C)/C=C/C(=O)Cc1cc(O)c(C)c(O)c1C=O`, the EC50 was 27.5 µM (active).

Turning to `Cc1ccc(NC(=O)COC(=O)/C=C/c2ccc(Br)o2)cc1S(=O)(=O)N(C)C`, the EC50 is > 260 µM (inactive).

With `CCOC(=O)N1CCN(S(=O)(=O)c2cc(Cl)c(OC)cc2Cl)CC1`, the EC50 is > 260 µM (inactive).

For the compound `O=c1c2ccccc2nc(SCc2cn3ccsc3n2)n1-c1ccccc1`, the EC50 is > 260 µM (inactive).

Turning to `Cn1ncc(Br)c1C(=O)N1CCOCC1`, the EC50 was > 260 µM (inactive).

As for `Cc1c(C(=O)NCCN(C)C)oc2ccc(S(=O)(=O)N3CCCC3)cc12`, the EC50 is > 260 µM (inactive).

For `O=C(Nc1ccc([N+](=O)[O-])cc1)C1C(c2ccccc2)=C1c1ccccc1`, the EC50 is > 260 µM (inactive).

Consider `CCS(=O)(=O)Nc1ccc2[nH]c(O)nc2c1`, for which the EC50 is > 260 µM (inactive).

With `CC(C)SC1=NC(/C=C/c2ccc(Cl)cc2Cl)=CC(C)(C)N1`, the EC50 was 38.9 µM (active).

On to `COc1cc(/C=C/C(=O)N2CCOCC2)ccc1OCc1ccccc1`, for which the EC50 was > 260 µM (inactive).

In the case of `S=c1[nH]cc(Cc2ccccc2)s1`, the EC50 is > 260 µM (inactive).

Consider `Cc1cccc2cc(CN(Cc3ccco3)C(c3nnnn3CCc3ccccc3)C(C)C)c(O)nc12` (centres undefined), for which the EC50 is 70.3 µM (active).

Take `Cc1cc(NC(=O)c2cc(C)on2)n(-c2ccccc2)n1`: the EC50 is > 260 µM (inactive).

Consider `CCc1nn(C(C)C(=O)NC(C)CCc2ccco2)c(=O)c2cc3occc3n12` (centres undefined), for which the EC50 was > 260 µM (inactive).

On to `O=C(COC(=O)c1cn(-c2ccccc2)nc1-c1ccccc1)c1ccc([N+](=O)[O-])cc1`, for which the EC50 is > 260 µM (inactive).

Consider `COc1ccc(CN2CC(C(=O)NCCCN3CCOCC3)CC2=O)cc1` (centres undefined), for which the EC50 is > 260 µM (inactive).

Turning to `COc1ccc(CNS(=O)(=O)c2cc(CN3C(=O)c4cccnc4C3=O)ccc2OC)cc1`, the EC50 is > 260 µM (inactive).

On to `COc1cccc(C(=O)c2c(C)c(CCC#N)n3ccccc23)c1OC`, for which the EC50 was > 260 µM (inactive).

The target in the next data set is Cytochrome P450 2C9 (Homo sapiens, UniProt P11712).
Cytochrome P450 2C9, sequence (P11712 whole entry): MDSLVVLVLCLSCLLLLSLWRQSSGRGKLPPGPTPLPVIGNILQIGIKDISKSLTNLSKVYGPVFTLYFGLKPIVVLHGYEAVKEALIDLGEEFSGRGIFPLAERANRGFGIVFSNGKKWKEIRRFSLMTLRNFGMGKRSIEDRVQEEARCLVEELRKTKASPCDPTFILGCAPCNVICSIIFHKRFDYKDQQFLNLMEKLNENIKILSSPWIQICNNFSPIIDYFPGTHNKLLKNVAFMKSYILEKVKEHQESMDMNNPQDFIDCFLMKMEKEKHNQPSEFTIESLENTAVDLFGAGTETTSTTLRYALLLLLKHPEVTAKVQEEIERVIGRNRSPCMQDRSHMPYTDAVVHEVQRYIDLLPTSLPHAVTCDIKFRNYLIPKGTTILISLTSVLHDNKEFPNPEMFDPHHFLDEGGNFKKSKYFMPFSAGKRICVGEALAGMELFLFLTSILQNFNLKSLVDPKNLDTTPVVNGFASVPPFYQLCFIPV
Settings: not given
For the compound `CN(C)C(=O)c1ccc(-c2ccc3ncnc(N(C)C)c3c2)cc1`, the AC50 was 1.26 µM (inconclusive).

Regarding `O=C(Nc1cccc(F)c1)N1CCC2(CC1)CCN(C(=O)Oc1ccccc1)CC2`, the AC50 was 39.8 µM (inconclusive).

On to `CC(=O)[C@@]1(O)CC[C@H]2[C@H]3C[C@@H](C)C4=CC(=O)C=C[C@]4(C)[C@@]3(F)[C@@H](O)C[C@]21C`, for which the AC50 was 12.6 µM (inconclusive).

Tested on in the next data set: not listed separately
As to the kind of experiment: HEp-2 cell cytotoxicity, dose response, cytotoxicity control for RSV inhibitor project, HTS (AID 2410). Format: functional. To be noted: human respiratory syncytial virus.
Regarding `Cc1nn(-c2ccccc2)c(Cl)c1/C=C1\C(=O)N(C)C(=S)N1C`, the cytotoxic concentration (CC50) is 26.6 µM (active).

`Cc1nc2ccccc2c(N)c1C(=O)/C=C/c1ccccc1`: the CC50 was 9.1 µM (active).

On to `N#Cc1c(F)cccc1N1CCOCC1`, for which the CC50 was 23.6 µM (active).

For the compound `CCc1nn(C(C)C(=O)NC(C)CCc2ccco2)c(=O)c2cc3occc3n12` (centres undefined), the CC50 is > 50 µM (active).

Consider `COc1cccc(-c2ccc(SCC(=O)c3ccccc3)nn2)c1`, for which the CC50 was 35.2 µM (active).

Turning to `Cc1ccc(/C=N/NC2=NC(=O)CS2)o1`, the CC50 is 21.5 µM (active).

On to `O=C(Nc1ccsc1C(=O)O)c1cccc(Oc2ccccc2)c1`, for which the CC50 was 18.3 µM (active).

Regarding `COc1ccc(Nc2nc(-c3ccccc3)nc3ccccc23)cc1`, the CC50 is 13.1 µM (active).

In the case of `CCOC(=O)C(O)(c1ccc(NC(=O)c2ccc(Cl)c(Cl)c2)cc1)C(F)(F)F` (centres undefined), the CC50 was 20.9 µM (active).

Regarding `COc1ccccc1C(=O)Nc1ccccc1N1CCN(C(=O)c2ccc(Cl)cc2)CC1`, the CC50 is 26.5 µM (active).

In another data set the target is Cytochrome P450 2C19 (Homo sapiens, UniProt P33261). Briefly: Cytochrome panel assay with activity outcomes. Panel member name: p450-cyp2c19 Compounds with AC50 equal or less than 10 uM are considered active.
Cytochrome P450 2C19, sequence (P33261 whole entry): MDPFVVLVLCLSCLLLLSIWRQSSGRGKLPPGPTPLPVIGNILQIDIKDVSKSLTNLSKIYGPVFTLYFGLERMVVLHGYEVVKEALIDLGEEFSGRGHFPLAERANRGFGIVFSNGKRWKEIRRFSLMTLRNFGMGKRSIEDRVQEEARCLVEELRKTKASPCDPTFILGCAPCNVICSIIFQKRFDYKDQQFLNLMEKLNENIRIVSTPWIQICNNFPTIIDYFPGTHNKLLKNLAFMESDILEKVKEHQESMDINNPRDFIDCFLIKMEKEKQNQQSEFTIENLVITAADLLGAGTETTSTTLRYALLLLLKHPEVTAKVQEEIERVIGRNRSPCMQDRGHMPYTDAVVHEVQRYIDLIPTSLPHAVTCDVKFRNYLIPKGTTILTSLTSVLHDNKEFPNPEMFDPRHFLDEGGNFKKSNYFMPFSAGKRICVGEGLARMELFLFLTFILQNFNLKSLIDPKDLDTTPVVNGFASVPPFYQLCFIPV
Settings: not given
Format: functional.
For the compound `C[N+]1(C)C[C@@H](O)C[C@@H]1C(=O)[O-]` [BETONICINE], the AC50 result was “inconclusive”.

Staying with this data set, now noted: read-out: AC50.
In the case of `COCCn1nc2cc(C(=O)NCc3cc(C(F)(F)F)cc(C(F)(F)F)c3)ccc2c1OC`, the half-maximal activity concentration (AC50) is 3.16 µM (inconclusive).

As for `O=C(O)[C@H]1[C@H]2c3ccccc3[C@H](c3ccccc32)[C@@H]1C(=O)NCC1CC1`, the AC50 is 3.98 µM (inconclusive).
